From patent US8895504B2, “Amylin derivatives” (priority 2008, dated 2014) come the findings set out here.

*1 amine or outer side, *2 acyl side, *3 side chain or, on linkers, in order; H or OH if unused. Where a SMILES comes first, the peptide text is derived from it. Bridges are numbered along the chain shown (N, C = ends). The star is where a group is joined. C20 diacid = O=C(O)CCCCCCCCCCCCCCCCCCC(=O)*; C18 diacid = O=C(O)CCCCCCCCCCCCCCCCC(=O)*; γGlu = O=C(O)[C@H](CCC(=O)[*:2])N[*:1]; GABA = NCCCC(=O)O

For the assay, the target named is T1, Amylin 3(a) receptor (human calcitonin receptor (CTa) and RAMP-3) (Homo sapiens, UniProt O60896+P30988).
T1 construct: expressed in transfected cells; host or cells: BHK570 cells, stably transfected with a CRE-luciferase reporter
T1 sequence (O60896 24-148): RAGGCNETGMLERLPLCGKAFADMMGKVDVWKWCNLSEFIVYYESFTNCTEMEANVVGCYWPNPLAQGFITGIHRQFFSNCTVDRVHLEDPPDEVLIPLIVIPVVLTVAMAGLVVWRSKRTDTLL
T1 sequence (P30988 25-474): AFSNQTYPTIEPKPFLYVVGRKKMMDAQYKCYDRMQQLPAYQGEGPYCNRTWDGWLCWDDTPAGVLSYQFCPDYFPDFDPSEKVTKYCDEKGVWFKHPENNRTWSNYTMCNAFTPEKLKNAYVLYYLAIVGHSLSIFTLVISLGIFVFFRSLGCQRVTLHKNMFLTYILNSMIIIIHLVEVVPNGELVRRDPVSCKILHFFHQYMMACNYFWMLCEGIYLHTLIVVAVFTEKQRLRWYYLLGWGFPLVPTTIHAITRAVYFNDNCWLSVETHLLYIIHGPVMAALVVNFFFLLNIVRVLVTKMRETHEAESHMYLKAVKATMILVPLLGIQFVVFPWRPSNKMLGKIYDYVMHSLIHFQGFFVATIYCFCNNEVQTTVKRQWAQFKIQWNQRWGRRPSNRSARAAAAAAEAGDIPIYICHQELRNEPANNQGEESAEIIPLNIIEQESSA
The assay is described as follows: Luciferase assay (III), BHK Amylin 3(a)//CRE-luc cells. Conditions: BHK cells with Amylin 3(a) receptor and CRE luciferase reporter, 4 hours incubation; read-out: Potency Luciferase. It is filed as cell-based. The method in brief: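 BHK570 cells stably expressing CTa, RAMP-3 and a CRE-luciferase reporter, seeded at about 20,000 cells/well and grown overnight. Cells were exposed to standard or sample for 4 h at 37° C in phenol red-free DMEM with 10% FBS and 10 mM Hepes, pH 7,4. Luminescence was read after 30 min LucLite at room temperature.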

As to `CC[C@H](C)[C@H](NC(=O)[C@@H]1CCCN1C(=O)CNC(=O)[C@H](Cc1ccccc1)NC(=O)[C@H](CC(N)=O)NC(=O)[C@H](CC(N)=O)NC(=O)[C@H](CO)NC(=O)[C@H](CO)NC(=O)[C@H](Cc1c[nH]cn1)NC(=O)[C@H](CCCNC(=N)N)NC(=O)[C@H](CC(C)C)NC(=O)[C@H](Cc1ccccc1)NC(=O)[C@H](CC(N)=O)NC(=O)[C@H](C)NC(=O)[C@H](CC(C)C)NC(=O)[C@H](CCCNC(=N)N)NC(=O)[C@H](CCC(N)=O)NC(=O)[C@@H](NC(=O)[C@H](C)NC(=O)[C@@H]1CSSC[C@H](NC(=O)[C@H](CCCCN)NC(=O)[C@H](CCCNC(=N)N)NC(=O)CCCNC(=O)CCCCCCCCCCCCCCCCCCC(=O)O)C(=O)N[C@@H](CC(N)=O)C(=O)N[C@@H]([C@@H](C)O)C(=O)N[C@@H](C)C(=O)N[C@@H]([C@@H](C)O)C(=O)N1)[C@@H](C)O)C(=O)N[C@@H](CC(C)C)C(=O)N1CCC[C@H]1C(=O)N1CCC[C@H]1C(=O)N[C@H](C(=O)N[C@@H](CC(N)=O)C(=O)N[C@H](C(=O)NCC(=O)N[C@@H](CO)C(=O)N[C@@H](CC(N)=O)C(=O)N[C@H](C(=O)N[C@@H](Cc1ccc(O)cc1)C(N)=O)[C@@H](C)O)C(C)C)[C@@H](C)O` [Example 25, N-alpha-[4-(19-Carboxynonadecanoylamino)butyryl]-Arg-[Arg17]-pramlintide] ({C20 diacid-GABA}-RKCNTATCATQRLANFLRHSSNNFGPILPPTNVGSNTY-NH2; disulfide 3-8), the EC50 came to 0.03 nM.
As for `CC[C@H](C)[C@H](NC(=O)[C@@H]1CCCN1C(=O)CNC(=O)[C@H](Cc1ccccc1)NC(=O)[C@H](CC(N)=O)NC(=O)[C@H](CC(N)=O)NC(=O)[C@H](CO)NC(=O)[C@H](CO)NC(=O)[C@H](Cc1c[nH]cn1)NC(=O)[C@H](CCCNC(=N)N)NC(=O)[C@H](CC(C)C)NC(=O)[C@H](Cc1ccccc1)NC(=O)[C@H](CC(N)=O)NC(=O)[C@H](C)NC(=O)[C@H](CC(C)C)NC(=O)[C@H](CCCNC(=N)N)NC(=O)[C@H](CCC(N)=O)NC(=O)[C@@H](NC(=O)[C@H](C)NC(=O)[C@@H]1CSSC[C@H](NC(=O)[C@H](CCCCN)NC(=O)[C@H](CCCNC(=N)N)NC(=O)CC[C@H](NC(=O)CCCCCCCCCCCCCCCCC(=O)O)C(=O)O)C(=O)N[C@@H](CC(N)=O)C(=O)N[C@@H]([C@@H](C)O)C(=O)N[C@@H](C)C(=O)N[C@@H]([C@@H](C)O)C(=O)N1)[C@@H](C)O)C(=O)N[C@@H](CC(C)C)C(=O)N1CCC[C@H]1C(=O)N1CCC[C@H]1C(=O)N[C@H](C(=O)N[C@@H](CC(N)=O)C(=O)N[C@H](C(=O)NCC(=O)N[C@@H](CO)C(=O)N[C@@H](CC(N)=O)C(=O)N[C@H](C(=O)N[C@@H](Cc1ccc(O)cc1)C(N)=O)[C@@H](C)O)C(C)C)[C@@H](C)O` [Example 26, N-alpha-[(S)-4-Carboxy-4-(17-carboxyheptadecanoylamino)butyryl]-Arg-[Arg17]-pramlintide] ({C18 diacid-γGlu}-RKCNTATCATQRLANFLRHSSNNFGPILPPTNVGSNTY-NH2; disulfide 3-8), the EC50 was determined as 0.05 nM.
